According to US20220117938A1, “COMBINATON THERAPY WITH A DON PRODRUG AND AN IMMUNE CHECKPOINT INHIBITOR” (DRACEN PHARMACEUTICALS, INC., priority 2019, published 2022):

What was measured:
[1] = test system: CT26 tumors; assay: CT26 model, Compound 1 5-day ON 2-day OFF with and without anti-PD-1 (Example 2B, similar experiment, Tables 2B-5/2B-6); assay type: in vivo, mice; conditions: for Cures / Median Survival: 5-day ON 2-day OFF; for Mean Tumor Vol / TGI: Day 15; for BWC: mouse, in vivo
[2] = test system: MC38 tumors; assay: Anti-tumor efficacy of Compound 1 and Compound 3 by IV and SC routes in the MC38 model (Example 9); assay type: in vivo, mice
Description: Female C57BL/6 mice were inoculated subcutaneously in the right flank with MC38 cells for tumor development. Six days after tumor inoculation, mice with tumor sizes ranging from 52-97 mm^3 (average tumor size 71 mm^3) were selected and assigned into 10 groups using stratified randomization with 8 mice per group based upon their tumor volumes. The treatments were started from the day of randomization (defined as D0), Group 1 was treated with Vehicle control, SC qd×5 days on (Mon-Fri)×4 cycles; Group 2 was treated with Compound 1, 1.4 mpk SC, qd×5 days on (Mon-Fri)×4 cycles; Group 3 was treated with Compound 1, 7 mpk IV, biw (Mon, Thu)×4 cycles; Group 4 was treated with Compound 1, 14 mpk IV, biw (Mon, Thu)×4 cycles; Group 5 was treated with Compound 1, 14 mpk IV, qw (Mon)×4 cycles; Group 6 was treated with Compound 1, 21 mpk IV, qw (Mon)×4 cycles; Group 7 was treated with Compound 3, 1 mpk SC, qd 5 days on (Mon-Fri)×4 cycles; Group 8 was treated with Compound 3, 3 mpk SC, qd 5 days on (Mon-Fri)×4 cycles; Group 9 was treated with Compound 3, 9 mpk SC, qd 5 days on (Mon-Fri)×4 cycles; and Group 10 was treated with Compound 3, 7 mpk IV, tiw (Mon, Wed, Fri)×4 cycles. The tumor sizes were measured three times per week during the treatment. Survival was monitored with tumor volume exceeding 2000 mm^3 as endpoint. The entire study was terminated on D44 after start of the treatment. All treatments were well-tolerated without any adverse effects or significant body weight loss.

[3] = 0.15 mg/kg 5-day ON 2-day OFF x 4 cycles
[4] = 0.5 mg/kg 5-day ON 2-day OFF x 4 cycles
[5] = 1.4 mg/kg 5-day ON 2-day OFF x 4 cycles
[6] = Group 2, 1.4 mpk SC qd Mon-Fri x4 cycles
[7] = Group 2, 1.4 mpk SC qd Mon-Fri x4 cycles, day 11
[8] = Group 3, 7 mpk IV biw x4 cycles
[9] = Group 3, 7 mpk IV biw x4 cycles, day 11
[10] = Group 4, 14 mpk IV biw x4 cycles
[11] = Group 4, 14 mpk IV biw x4 cycles, day 11
[12] = Group 5, 14 mpk IV qw x4 cycles
[13] = Group 5, 14 mpk IV qw x4 cycles, day 11
[14] = Group 6, 21 mpk IV qw x4 cycles
[15] = Group 6, 21 mpk IV qw x4 cycles, day 11

`CC(=O)N[C@@H](Cc1c[nH]c2ccccc12)C(=O)N[C@@H](CCC(=O)C=[N+]=[N-])C(=O)OC(C)C` [Compound 1, Isopropyl (S)-2-((S)-2-acetamido-3-(1H-indol-3-yl)propanamido)-6-diazo-5-oxohexanoate] was tested, and the Cures ([1]; Compound 1 0.15 mg/kg) was 0%, the “Median Survival” value ([1]; Compound 1 0.15 mg/kg) was 26 days and the Cures ([1]; Compound 1 0.5 mg/kg) was 0%. For the same molecule, the “Median Survival” value ([1]; Compound 1 0.5 mg/kg) was 36 days, the Cures ([1]; Compound 1 1.4 mg/kg) was 0% and the “Median Survival” value ([1]; Compound 1 1.4 mg/kg) was 37 days. The “Mean Tumor Vol” value [1, 3] was 188 ± 29 mm^3, the TGI [1, 3] was 76% and the “Mean Tumor Vol” value [1, 4] was 150 ± 21 mm^3. For the same molecule, the TGI [1, 4] was 88%, the “Mean Tumor Vol” value [1, 5] was 106 ± 16 mm^3 and the TGI [1, 5] was 91%. The BWC ([1]; 0.15 mg/kg) was 7%, the BWC ([1]; 0.5 mg/kg) was 1.4% and the BWC ([1]; 1.4 mg/kg) was −11%. The ILS [2, 6] was 170.0%, the MST [2, 6] was 40.5 days and the “RTV at day 11” value [2, 6] was 0.63 ± 0.11. The “Tumor Size at day 11” value [2, 6] was 43 ± 6 mm^3, the Tumor volume ([2]; Group 2, 1.4 mpk SC qd Mon-Fri x4 cycles, day 0) was 71 ± 5 mm^3 and the Tumor volume ([2]; Group 2, 1.4 mpk SC qd Mon-Fri x4 cycles, day 2) was 64 ± 5 mm^3. For the same molecule, the Tumor volume ([2]; Group 2, 1.4 mpk SC qd Mon-Fri x4 cycles, day 4) was 68 ± 10 mm^3, the Tumor volume ([2]; Group 2, 1.4 mpk SC qd Mon-Fri x4 cycles, day 7) was 61 ± 5 mm^3 and the Tumor volume ([2]; Group 2, 1.4 mpk SC qd Mon-Fri x4 cycles, day 9) was 39 ± 3 mm^3. The T/C [2, 7] was 3.86%, the TGI [2, 7] was 102.69% and the Tumor volume [2, 7] was 43 ± 6 mm^3. It also gave a Tumor volume ([2]; Group 2, 1.4 mpk SC qd Mon-Fri x4 cycles, day 14) of 51 ± 9 mm^3, a Tumor volume ([2]; Group 2, 1.4 mpk SC qd Mon-Fri x4 cycles, day 16) of 50 ± 7 mm^3 and a Tumor volume ([2]; Group 2, 1.4 mpk SC qd Mon-Fri x4 cycles, day 18) of 52 ± 9 mm^3. The Tumor volume ([2]; Group 2, 1.4 mpk SC qd Mon-Fri x4 cycles, day 21) was 44 ± 7 mm^3, the Tumor volume ([2]; Group 2, 1.4 mpk SC qd Mon-Fri x4 cycles, day 23) was 41 ± 9 mm^3 and the Tumor volume ([2]; Group 2, 1.4 mpk SC qd Mon-Fri x4 cycles, day 25) was 42 ± 11 mm^3. For the same molecule, the Tumor volume ([2]; Group 2, 1.4 mpk SC qd Mon-Fri x4 cycles, day 28) was 55 ± 14 mm^3, the Tumor volume ([2]; Group 2, 1.4 mpk SC qd Mon-Fri x4 cycles, day 30) was 140 ± 50 mm^3 and the Tumor volume ([2]; Group 2, 1.4 mpk SC qd Mon-Fri x4 cycles, day 32) was 303 ± 119 mm^3. For the same molecule, the Tumor volume ([2]; Group 2, 1.4 mpk SC qd Mon-Fri x4 cycles, day 35) was 509 ± 166 mm^3, the Tumor volume ([2]; Group 2, 1.4 mpk SC qd Mon-Fri x4 cycles, day 37) was 896 ± 217 mm^3 and the ILS [2, 8] was 123.3%. The MST [2, 8] was 33.5 days, the “RTV at day 11” value [2, 8] was 1.44 ± 0.20 and the “Tumor Size at day 11” value [2, 8] was 99 ± 11 mm^3. For the same molecule, the Tumor volume ([2]; Group 3, 7 mpk IV biw x4 cycles, day 0) was 71 ± 4 mm^3, the Tumor volume ([2]; Group 3, 7 mpk IV biw x4 cycles, day 2) was 61 ± 9 mm^3 and the Tumor volume ([2]; Group 3, 7 mpk IV biw x4 cycles, day 4) was 64 ± 7 mm^3. The Tumor volume ([2]; Group 3, 7 mpk IV biw x4 cycles, day 7) was 98 ± 8 mm^3, the Tumor volume ([2]; Group 3, 7 mpk IV biw x4 cycles, day 9) was 79 ± 7 mm^3 and the T/C [2, 9] was 8.87%. The TGI [2, 9] was 97.42%, the Tumor volume [2, 9] was 99 ± 11 mm^3 and the Tumor volume ([2]; Group 3, 7 mpk IV biw x4 cycles, day 14) was 140 ± 16 mm^3. It also gave a Tumor volume ([2]; Group 3, 7 mpk IV biw x4 cycles, day 16) of 134 ± 10 mm^3, a Tumor volume ([2]; Group 3, 7 mpk IV biw x4 cycles, day 18) of 133 ± 15 mm^3 and a Tumor volume ([2]; Group 3, 7 mpk IV biw x4 cycles, day 21) of 236 ± 36 mm^3. For the same molecule, the Tumor volume ([2]; Group 3, 7 mpk IV biw x4 cycles, day 23) was 317 ± 59 mm^3, the Tumor volume ([2]; Group 3, 7 mpk IV biw x4 cycles, day 25) was 337 ± 56 mm^3 and the Tumor volume ([2]; Group 3, 7 mpk IV biw x4 cycles, day 28) was 602 ± 144 mm^3. For the same molecule, the Tumor volume ([2]; Group 3, 7 mpk IV biw x4 cycles, day 30) was 1181 ± 278 mm^3, the ILS [2, 10] was 133.3% and the MST [2, 10] was 35 days. The “RTV at day 11” value [2, 10] was 1.06 ± 0.22, the “Tumor Size at day 11” value [2, 10] was 69 ± 11 mm^3 and the Tumor volume ([2]; Group 4, 14 mpk IV biw x4 cycles, day 0) was 72 ± 6 mm^3. The Tumor volume ([2]; Group 4, 14 mpk IV biw x4 cycles, day 2) was 80 ± 12 mm^3, the Tumor volume ([2]; Group 4, 14 mpk IV biw x4 cycles, day 4) was 70 ± 8 mm^3 and the Tumor volume ([2]; Group 4, 14 mpk IV biw x4 cycles, day 7) was 86 ± 13 mm^3. For the same molecule, the Tumor volume ([2]; Group 4, 14 mpk IV biw x4 cycles, day 9) was 70 ± 11 mm^3, the T/C [2, 11] was 6.51% and the TGI [2, 11] was 100.28%. It also gave a Tumor volume [2, 11] of 69 ± 11 mm^3, a Tumor volume ([2]; Group 4, 14 mpk IV biw x4 cycles, day 14) of 95 ± 14 mm^3 and a Tumor volume ([2]; Group 4, 14 mpk IV biw x4 cycles, day 16) of 107 ± 25 mm^3. The Tumor volume ([2]; Group 4, 14 mpk IV biw x4 cycles, day 18) was 96 ± 22 mm^3, the Tumor volume ([2]; Group 4, 14 mpk IV biw x4 cycles, day 21) was 144 ± 45 mm^3 and the Tumor volume ([2]; Group 4, 14 mpk IV biw x4 cycles, day 23) was 163 ± 41 mm^3. It also gave a Tumor volume ([2]; Group 4, 14 mpk IV biw x4 cycles, day 25) of 167 ± 47 mm^3, a Tumor volume ([2]; Group 4, 14 mpk IV biw x4 cycles, day 28) of 261 ± 54 mm^3 and a Tumor volume ([2]; Group 4, 14 mpk IV biw x4 cycles, day 30) of 562 ± 124 mm^3. The Tumor volume ([2]; Group 4, 14 mpk IV biw x4 cycles, day 32) was 967 ± 171 mm^3, the Tumor volume ([2]; Group 4, 14 mpk IV biw x4 cycles, day 35) was 1884 ± 337 mm^3 and the ILS [2, 12] was 86.7%. For the same molecule, the MST [2, 12] was 28 days, the “RTV at day 11” value [2, 12] was 2.06 ± 0.40 and the “Tumor Size at day 11” value [2, 12] was 134 ± 21 mm^3. For the same molecule, the Tumor volume ([2]; Group 5, 14 mpk IV qw x4 cycles, day 0) was 70 ± 4 mm^3, the Tumor volume ([2]; Group 5, 14 mpk IV qw x4 cycles, day 2) was 67 ± 5 mm^3 and the Tumor volume ([2]; Group 5, 14 mpk IV qw x4 cycles, day 4) was 77 ± 12 mm^3. The Tumor volume ([2]; Group 5, 14 mpk IV qw x4 cycles, day 7) was 152 ± 20 mm^3, the Tumor volume ([2]; Group 5, 14 mpk IV qw x4 cycles, day 9) was 105 ± 12 mm^3 and the T/C [2, 13] was 12.69%. For the same molecule, the TGI [2, 13] was 93.98%, the Tumor volume [2, 13] was 134 ± 21 mm^3 and the Tumor volume ([2]; Group 5, 14 mpk IV qw x4 cycles, day 14) was 312 ± 56 mm^3. The ILS [2, 14] was 60.0%, the MST [2, 14] was 24 days and the “RTV at day 11” value [2, 14] was 2.86 ± 0.39. The “Tumor Size at day 11” value [2, 14] was 206 ± 33 mm^3, the Tumor volume ([2]; Group 6, 21 mpk IV qw x4 cycles, day 0) was 71 ± 4 mm^3 and the Tumor volume ([2]; Group 6, 21 mpk IV qw x4 cycles, day 2) was 79 ± 10 mm^3. For the same molecule, the Tumor volume ([2]; Group 6, 21 mpk IV qw x4 cycles, day 4) was 80 ± 9 mm^3, the Tumor volume ([2]; Group 6, 21 mpk IV qw x4 cycles, day 7) was 182 ± 24 mm^3 and the Tumor volume ([2]; Group 6, 21 mpk IV qw x4 cycles, day 9) was 164 ± 21 mm^3. For the same molecule, the T/C [2, 15] was 17.57%, the TGI [2, 15] was 87.26% and the Tumor volume [2, 15] was 206 ± 33 mm^3. For the same molecule, the Tumor volume ([2]; Group 6, 21 mpk IV qw x4 cycles, day 14) was 440 ± 87 mm^3, the Tumor volume ([2]; Group 6, 21 mpk IV qw x4 cycles, day 16) was 515 ± 84 mm^3 and the Tumor volume ([2]; Group 6, 21 mpk IV qw x4 cycles, day 18) was 740 ± 120 mm^3. The Tumor volume ([2]; Group 6, 21 mpk IV qw x4 cycles, day 21) was 1005 ± 174 mm^3 and the Tumor volume ([2]; Group 6, 21 mpk IV qw x4 cycles, day 23) was 1683 ± 302 mm^3.
